These results are taken from PMC5835390 (Chemical communications (Cambridge, England), 2018).

The test system of one series is carboxypeptidase. Put plainly: Carboxypeptidase treatment of albusnodin. In kind it is in vitro ADME. To be noted: reports on threaded state, Fig. S9.
For series [1] the following is noted: chromatographic, C18 column, same gradient; cited from earlier work.

Regarding albusnodin, in the series on carboxypeptidase, the “Resistance to carboxypeptidase cleavage” value is recorded as “resistant to carboxypeptidase cleavage”. With astexin-1, in series [1], the “HPLC elution time (used as indication of polarity)” value (“HPLC elution time” for short) is on record as “around 14 minutes”. With astexin-2, the “HPLC elution time” value in series [1] is given as “around 14 minutes”. astexin-3: the “HPLC elution time” value in series [1] is “around 14 minutes”. For “microcin J25 (GGAGHVPEYFVGIGTPISFYG; not fully specified; Microcin J25 lasso peptide; UniProt Q9X2V7 38-58, looked up)”, the “HPLC elution time” value in series [1] was “around 17 minutes”.
